Data on 14 compounds can be found in US5795907A, “Gastin and CCK receptor ligands” (James Black Foundation Limited, priority 1994, dated 1998).

Assay [1] addresses T1, gastrin (Rattus norvegicus, UniProt P30553).
T1 construct: The stomach was lowered into a jacketed organ bath containing 40 ml of buffered solution; from tissue; host or cells: isolated perfused whole stomach of immature rats (ca. 21 days old)
T1 sequence (P30553 1-452): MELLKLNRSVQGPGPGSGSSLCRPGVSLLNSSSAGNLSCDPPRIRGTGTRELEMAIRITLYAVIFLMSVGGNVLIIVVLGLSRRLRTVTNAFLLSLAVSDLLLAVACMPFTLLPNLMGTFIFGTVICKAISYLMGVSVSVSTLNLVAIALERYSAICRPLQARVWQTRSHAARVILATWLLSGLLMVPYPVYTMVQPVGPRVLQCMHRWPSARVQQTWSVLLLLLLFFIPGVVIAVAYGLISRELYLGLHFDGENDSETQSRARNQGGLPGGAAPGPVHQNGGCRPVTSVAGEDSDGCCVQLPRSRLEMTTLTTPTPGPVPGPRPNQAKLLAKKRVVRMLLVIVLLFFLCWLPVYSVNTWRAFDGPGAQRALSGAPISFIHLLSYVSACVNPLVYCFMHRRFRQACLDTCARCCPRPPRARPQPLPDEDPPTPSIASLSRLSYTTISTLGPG
The assay can be described thus: gastrin antagonist activity in an immature rat stomach assay (pentagastrin-stimulated acid secretion). As to conditions: cumulative pentagastrin dose-response curves after 60 min with drug. The method, then:
The compounds of the examples were also tested for gastrin antagonist activity in an immature rat stomach assay. The procedure was as follows:
The oesophagus of immature rats (33-50 g, ca. 21 days old) was ligated at the level of the cardiac sphincter and the duodenal sphincter was cannulated. The stomach was excised and flushed with ca. 1 ml of unbuffered physiological saline solution. The fundus was punctured and cannulated. A further 4-5 ml of unbuffered solution was flushed through the stomach to ensure the preparation was not leaking. The stomach was lowered into a jacketed organ bath containing 40 ml of buffered solution containing 3×10^-8 M 5-methylfurmethide, maintained at 37° and gassed vigorously with 95% O2 /5% CO2. The stomach was continuously perfused at a rate of 1 ml min^-1 with unbuffered solution gassed with 100% O2 with the perfusate passing over an internally referenced pH-electrode fixed 12 cm above the stomach.
After 120 min of stabilisation the drugs were added directly to the serosal solution in the organ bath and after a further 60 min cumulative pentagastrin dose-response curves were started. Changes in acid secretion were monitored and the curves analysed according to Black et.al., Br. J. Pharmacol., 1985, 86, 581.

The target in assay [2] is T2, CCKA (Cavia porcellus, UniProt Q63931).
T2 construct: The pancreatata were homogenised in 40 ml ice-cold HEPES buffer using a polytron; from tissue; host or cells: pancreas membranes of male Dunkin Hartley guinea-pigs
T2 sequence (Q63931 1-430): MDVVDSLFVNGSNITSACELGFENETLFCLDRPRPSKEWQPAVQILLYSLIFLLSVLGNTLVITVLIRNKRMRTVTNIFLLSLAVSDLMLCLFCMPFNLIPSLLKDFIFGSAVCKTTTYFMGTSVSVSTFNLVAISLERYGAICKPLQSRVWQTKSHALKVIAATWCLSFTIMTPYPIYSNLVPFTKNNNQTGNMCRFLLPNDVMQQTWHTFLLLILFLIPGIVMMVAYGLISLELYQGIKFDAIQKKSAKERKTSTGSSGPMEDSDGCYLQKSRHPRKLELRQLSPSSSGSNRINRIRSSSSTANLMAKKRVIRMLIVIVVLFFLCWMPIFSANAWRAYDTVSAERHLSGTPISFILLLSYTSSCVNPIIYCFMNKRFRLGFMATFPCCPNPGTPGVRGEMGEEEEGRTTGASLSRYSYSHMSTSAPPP
The assay can be described thus: CCKA radioligand binding assay in guinea-pig pancreas membranes ([125I]-CCK8(S)). As to conditions: PD134,308 present, 150 minutes at 21±3°. The method, then: The compounds of the examples were also tested in a CCKA as follows:
The pancreatata were removed from male guinea-pigs (200-300 g; Dunkin Hartley) and placed in ice-cold HEPES buffer (pH 7.2 @ 21 ±3). The pancreatata were homogenised in 40 ml ice-cold HEPES buffer using a polytron (Brinkmann, PT10, setting 10) 4×1 second. The homogenate was centrifuged at 39,800 g for 15 min at 4°. The supernatant was discarded and the pellet re-suspended using a Teflon-in-glass homogeniser in 20 volumes of fresh buffer and re-centrifuged as above.
The final pellet was re-suspended using a Teflon-in-glass homogeniser to a tissue concentration of 1 mg.ml^-1 (original wet weight), and filtered through 500 μm pore-size Nytex mesh.
The membranes (400 μl; containing 0.375 μM PD134,308) are incubated for 150 minutes at 21±3° in a final volume of 0.5 ml with HEPES buffer containing [^125 I]-CCK8 (S) (50 μl; […]) and competing compound. Total and non-specific binding of [^125 I]-CCK8 (S) are defined using 50 μl of buffer and 50 μl of 100 nM L-364,718 respectively. The assay is terminated by rapid filtration through pre-soaked Whatman GF/B filters using a Brandell Cell Harvester. The filters were washed (3×3 ml) with ice-cold 50 mM Tris HCl (pH 7.4 at 4°) and bound radioactivity is determined by counting (1 min) in a gamma counter.

Assay [3] has as its target T3, CCKB receptor (Mus musculus, UniProt P56481).
T3 construct: The cortex was dissected, weighed and homogenised in 40ml ice-cold buffer; tissue Charles River (supplier of the CD1 mice); host or cells: cerebral cortex membranes of male CD1 mice
T3 sequence (P56481 1-453): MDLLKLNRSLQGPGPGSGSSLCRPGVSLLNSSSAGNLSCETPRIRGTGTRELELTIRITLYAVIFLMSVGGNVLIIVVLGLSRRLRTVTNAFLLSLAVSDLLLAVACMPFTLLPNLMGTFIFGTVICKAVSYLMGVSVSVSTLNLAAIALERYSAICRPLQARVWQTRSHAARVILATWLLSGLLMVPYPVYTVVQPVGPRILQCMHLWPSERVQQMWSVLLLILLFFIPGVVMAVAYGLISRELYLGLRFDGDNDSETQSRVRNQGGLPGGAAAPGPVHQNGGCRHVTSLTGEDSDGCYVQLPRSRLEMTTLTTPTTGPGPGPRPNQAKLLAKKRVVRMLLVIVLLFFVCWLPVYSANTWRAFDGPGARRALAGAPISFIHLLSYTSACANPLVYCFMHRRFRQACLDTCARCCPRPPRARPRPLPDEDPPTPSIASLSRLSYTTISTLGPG
The assay can be described thus: CCKB receptor radioligand binding assay in mouse cortical membranes ([125I]-CCK8S). As to conditions: [125I]-CCK8S 200 pM, 150 min at 21±3°. Summed up:
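This was competition binding with tracer [125I]-CCK8S (200 pM solution added), run for 150 min at 21±3° on male CD1 mouse cortex membranes in pH 7.2 HEPES buffer with bacitracin. Filtration then gamma counting gave bound radioactivity. L-365,260 set the non-specific level.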

For the compound “1/2-(1-adamantanemethylaminocarbonyl)-naphthoic acid Regioisomer 1 [Example 21]”, the “Gastrin pKB” value in assay [1] came out at 5.3. Moreover, in assay [2], the “CCKA pKi” value was 5.2.

Regarding “3-(1S-(3,5-dicarboxyphenylaminocarbonyl)-2-phenyl ethylaminocarbonyl)-2-(1-adamantanemethylaminocarbonyl)-5-aminonaphthalene [Example 116]”, the “CCKB pKi” value in assay [3] worked out at 8.5. The “Gastrin pKB” value in assay [1] amounted to 9.0. Also, the “CCKA pKi” value in assay [2] came out at 5.6.

Consider “3-(1S-(3,5-dicarboxyphenylaminocarbonyl)-2-phenylethylaminocarbonyl)-2-(1-adamantanemethylaminocarbonyl)-5-nitronaphthalene and its regioisomer with groups at positions 2 and 3 reversed [Example 55]”, for which, in assay [3], the “CCKB pKi” value is given as 8.2. The “Gastrin pKB” value in assay [1] worked out at 8.3. For the same compound, the “CCKA pKi” value in assay [2] turned out to be 5.8.

On to “5-(1R-(3,5-dicarboxyphenylaminocarbonyl)-2-phenylethylaminocarbonyl)-6-(1-adamantanemethylaminocarbonyl)-indole and regioisomer with substituents at positions 5 and 6 reversed [Example 29]”, for which, in assay [3], the “CCKB pKi” value stood at 8.1. Further, the “Gastrin pKB” value in assay [1] worked out at 9.2. Also, the “CCKA pKi” value in assay [2] came out at 5.4.

For the compound “5-(1R-(3,5-dicarboxyphenylaminocarbonyl)-ethylaminocarbonyl)-6-(cycloheptanemethylaminocarbonyl)-indole and regioisomer with substituents at positions 5 and 6 reversed [Example 59]”, the “CCKB pKi” value in assay [3] was determined as 6.9. Moreover, the “Gastrin pKB” value in assay [1] came out at 7.5. Also, in assay [2], the “CCKA pKi” value stood at 5.1.

As for “5-(1S-(3,5-di-methylsulphonylaminophenylaminocarbonyl)-2-phenylethylaminocarbonyl)-6-(1-adamantanemethylaminocarbonyl)-indole [Example 92]”, the “CCKB pKi” value in assay [3] is recorded as 6.5. Moreover, the “Gastrin pKB” value in assay [1] was 6.8. The “CCKA pKi” value in assay [2] was 4.9.

For the compound “5-(1S-(3,5-dicarboxyphenylaminocarbonyl)-2-(2-fluorophenyl)ethylaminocarbonyl)-6-(1-adamantanemethylaminocarbonyl)-indole and regioisomer with substituents at positions 5 and 6 reversed [Example 27]”, the “CCKB pKi” value in assay [3] is reported as 8.5. In assay [1], the “Gastrin pKB” value was 9.2. Moreover, the “CCKA pKi” value in assay [2] stood at 5.6.

On to “5-(1S-(3,5-dicarboxyphenylaminocarbonyl)-2-(3-fluorophenyl)ethylaminocarbonyl)-6-(1-adamantanemethylaminocarbonyl)-indole and regioisomer with substituents at positions 5 and 6 reversed [Example 28]”, for which the “CCKB pKi” value in assay [3] turned out to be 8.5. The “Gastrin pKB” value in assay [1] amounted to 9.7. The “CCKA pKi” value in assay [2] worked out at 5.4.

Consider “5-(1S-(3,5-dicarboxyphenylaminocarbonyl)-2-(4-aminophenyl)ethylaminocarbonyl)-6-(1-adamantanemethylaminocarbonyl)-indole and regioisomer with substituents at positions 5 and 6 reversed [Example 31]”, for which the “CCKB pKi” value in assay [3] was found to be 7.9. For the same compound, the “Gastrin pKB” value in assay [1] came to 8.9. In addition, in assay [2], the “CCKA pKi” value is 5.5.

In the case of “5-(1S-(3,5-dicarboxyphenylaminocarbonyl)-2-(4-hydroxyphenyl)e thylaminocarbonyl)-6-(1-adamantanemethylaminocarbonyl)-indole and regioisomer with substituents at positions 5 and 6 reversed [Example 30]”, the “CCKB pKi” value in assay [3] is listed as 7.6. Also, the “Gastrin pKB” value in assay [1] worked out at 9.1. For the same compound, in assay [2], the “CCKA pKi” value came to 5.2.

With “5-(1S-(3,5-dicarboxyphenylaminocarbonyl)-2-phenylethylaminocarbonyl)-6-(1-adamantanemethyl-N-methylaminocarbonyl)-indole and regioisomer with substituents at positions 5 and 6 reversed [Example 41]”, the “CCKB pKi” value in assay [3] amounted to 7.8. Further, in assay [1], the “Gastrin pKB” value amounted to 7.8. Also, the “CCKA pKi” value in assay [2] was 5.7.

Turning to “5-(1S-(3,5-dicarboxyphenylaminocarbonyl)-2-phenylethylaminocarbonyl)-6-(1-adamantanemethylaminocarbonyl)-2,3-dihydro-benzofuran [Example 123]”, the “CCKB pKi” value in assay [3] is 7.9. Further, the “Gastrin pKB” value in assay [1] is given as 8.5. Further, the “CCKA pKi” value in assay [2] turned out to be 6.3.

Take “5-(1S-(3,5-dicarboxyphenylaminocarbonyl)-2-phenylethylaminocarbonyl)-6-(1-adamantanemethylaminocarbonyl)-benzofuran [Example 122]”: the “CCKB pKi” value in assay [3] stood at 8.3. In assay [1], the “Gastrin pKB” value worked out at 9.1. For the same compound, the “CCKA pKi” value in assay [2] is 5.4.

In the case of `O=C(O)c1cc(NC(=O)[C@H](Cc2ccccc2C(F)(F)F)NC(=O)c2cc3[nH]cnc3cc2C(=O)NCC23CC4CC(CC(C4)C2)C3)cc(C(=O)O)c1` [Example 133, 5-(1S-(3,5-dicarboxyphenylaminocarbonyl)-2-(2-trifluoromethylphenyl)ethylaminocarbonyl)-6-(1-adamantanemethylaminocarbonyl)-benzimidazole], the Kb in assay [1] (read-out: Gastrin pKB (converted)) is 0.00794 µM. The Ki in assay [2] (read-out: CCKA pKi (converted)) is 7.94 µM.
